What was measured:
[1] = tested on: recurrent and metastatic colorectal cancer patients; experiment: Clinical association analysis related to survival on subjects treated with anticancer targeted drugs; format: in vivo, human
Method: (§1) The prediction of clinical outcomes of the corresponding patients was based on the NCCN surveillance guidelines (www.nccn.org), and the determination of chemosensitivity to anticancer drugs were based on the RECIST criteria (Therasse et al., J Natl Cancer Inst 2000; 92:205-16).
Association analysis was performed on the SNP genotypes sensitive to the individual anticancer drugs obtained in steps (1) and (2) in colorectal cancer patients whose treatment with the corresponding drugs was terminated.

[2] = tested on: metastatic cancer patients; experiment: Clinical association analysis of drug response (RECIST criteria) on subjects treated with anticancer targeted drugs; format: in vivo, human; conditions: homozygous substitution alleles of ANXA11 rs1049550 and homozygous or heterozygous substitution alleles of LINS1 rs11247226; P=0.025, 0.019
Excerpt: as §1

bevacizumab was tested, and the “sensitivity and survival, in words (FIG. 2)” value ([1]; homozygous or heterozygous substitution alleles of ITGA3 rs2230392 vs homozygous reference alleles) was “greater sensitivity and longer progression-free survival and overall survival”, the “mean overall survival (OS)” value ([1]; patients carrying homozygous or heterozygous substitution alleles of ITGA3 rs2230392, P=0.006 vs homozygous reference) was 22.5±2.1 months and the “mean progression-free survival (PFS)” value ([1]; patients carrying homozygous or heterozygous substitution alleles of ITGA3 rs2230392, P=0.018 vs homozygous reference) was 8.7±0.7 months. The “mean overall survival (OS)” value ([1]; patients with homozygous reference alleles of ITGA3 rs2230392, P=0.006) was 13.4±1.9 months, the “mean progression-free survival (PFS)” value ([1]; patients with homozygous reference alleles of ITGA3 rs2230392, P=0.018) was 5.7±0.7 months and the “disease-control response rate, in words” value [2] was “significantly high disease-control response rate”.
